Laboratory results published in PMC6152192, “Novel Methylselenoesters as Antiproliferative Agents” (Molecules : A Journal of Synthetic Chemistry and Natural …, 2017).

Columns and labels:
[1] = tested on: MCF7 (mammary adenocarcinoma); assay: MTT viability assay, MCF7; type: cell-based; settings: MCF7, 72 h
Procedure: (§1) The novel compounds were tested against a panel of different cancer lines: PC-3 (prostate adenocarcinoma), MCF7 (mammary adenocarcinoma), HTB-54 (lung carcinoma), K-562 (chronic myelogenous leukemia) and HT-29 (colorectal adenocarcinoma). Two non-malignant cell lines, BEAS-2B (bronchial epithelial) and 184B5 (mammary epithelial) were also included to evaluate the toxicity of the novel synthesized compounds. The antiproliferative activity was measured with the [3-(4,5-dimethylthiazol-2-yl)-2,5-diphenyltetrazolium bromide] (MTT) assay after 72 h treatment. Six concentrations ranging from 0.1 to 100 μM were tested. MSA is largely known as the main CH3SeH putative precursor and was therefore included as positive control. The following parameters were calculated: GI50 (concentration which reduces the growth by 50%), TGI (concentration completely inhibiting growth) and LC50 (concentration that kills 50% of the cells).
(§2) All cells were purchased from the American Type Culture Collection (ATCC, Barcelona, Spain). HT-29 (colorectal adenocarcinoma), HTB-54 (grade III lung carcinoma), MCF7 (mammary adenocarcinoma), PC-3 (grade IV prostate adenocarcinoma) and K-562 (chronic myelogenous leukemia) were cultured in RPMI (Gibco, Madrid, Spain), 10% FBS (Gibco), 100 units/mL penicillin and 100 μg/mL streptomycin (Gibco). BEAS-2B cell line (normal epithelial lung) was cultured in DMEM (Gibco), 10% FBS, 100 units/mL penicillin and 100 μg/mL streptomycin. 184B5 (normal mammary gland) cell line was cultured in DMEM:F12 supplemented with 5% FBS, 1 × ITS (Lonza, Barcelona, Spain), 100 nM hydrocortisone (Sigma-Aldrich), 2 mM sodium pyruvate (Lonza), 20 ng/mL EGF (Sigma-Aldrich), 0.3 nM trans-retinoic acid (Sigma-Aldrich), 100 units/mL penicillin and 100 µg/mL streptomycin. Cells were cultured at 37 °C under 5% CO2.
(§3) Cell viability after treatment was assessed by the well-known 3-(4,5-dimethyl-thiazol-2-yl)-2,5-diphenyltetrazolium bromide (MTT, Sigma-Aldrich) assay. Briefly, 10,000 cells were seeded in 96-well plates, treated and incubated for 72 h. Dilutions of the compounds in cell medium were freshly prepared from a 0.01 M stock in DMSO. After treatment, 50 μL of MTT solution in PBS (2 mg/mL) were added and cells were incubated for 4 h. Medium was removed and 150 μL of DMSO was added to dissolve the formed formazan crystals. Absorbance was read at 550 nm in a microplate absorbance reader (Sunrise, Tecan, Männedorf, Switzerland).

[2] = Methylselenol (CH3SeH) release by hydrolysis, quantified with DTNB (Ellman's reagent); type: physicochemical; settings: 100 μM compound, 100 μM DTNB, phosphate buffer pH 8, 24 h
Source text: The new compounds were designed as CH3SeH precursors. The chemical features of the selenoester functional group facilitate a nucleophilic attack (i.e., with water) which would deliver the CH3SeH residue. In order to verify if CH3SeH could be released from the molecules by hydrolysis and if the rate differed among the compounds, the reaction of CH3SeH with 5,5′-dithiobis(2-nitrobenzoic acid) (DTNB or Ellman’s reagent) in aqueous environment was monitored. Briefly, when the disulfide bridge of DTNB reacts with thiols or selenols, 2-nitro-5-thiobenzoate (TNB^2−) is released and the mixed disulfide or selenylsulfide is formed. Each released CH3SeH produces one yellow TNB^2− species, whose absorbance can be quantified at 412 nm (Figure 2A).
A stock solution of the compounds was prepared in anhydrous DMSO (10 mM). The compounds were placed in a 96-well plate in a final concentration of 100 μM. Reaction started after adding 200 μL of an aqueous 100 mM Na2HPO4 buffer (1 mM EDTA, pH = 8), containing 100 μM of DTNB from a freshly prepared 10 mM ethanolic stock, which were added just before starting the reaction. The DTNB concentration was quantified with a cysteine standard curve ([…]). Blanks for the compounds in the absence of DTNB were also included as well as a blank to measure the slow but spontaneous hydrolysis of DTNB, which was further subtracted from all the values. Absorbance was read at 412 nm in a FLUOstar Omega microplate reader (BMG LabTech, Ortenberg, Germany). Results represent means of triplicate values ± SD.
Figure 2 CH3SeH release rates are dependent on the chemical features of the molecule. Released CH3SeH was quantified through reaction with Ellman’s reagent (DTNB). (A) Proposed reaction between CH3SeH and DTNB; (B) Quantification of TNB^2− at different times. The compounds were tested at 100 μM in 200 μL of 100 mM phosphate buffer (1 mM EDTA, pH = 8). DTNB concentration was also 100 μM. Absorbance was followed at 412 nm over 72 h. A cysteine standard curve (7.5–150 μM) was used to calculate the concentration of TNB^2− over time. Compounds showing less than 15% hydrolysis at 72 h are not included, except for compound 5 as example. Error bars indicate SD of triplicates.

[3] = tested on: K-562 (chronic myelogenous leukemia); assay: MTT viability assay, K-562; type: cell-based
Procedure: as §1, §2, §3

[4] = tested on: HT-29 (colorectal adenocarcinoma); assay: MTT viability assay, HT-29; type: cell-based; settings: HT-29, 72 h
Procedure: as §1, §2, §3

[5] = MTT viability assay, BEAS-2B; type: cell-based; settings: human
Procedure: as §1, §2, §3

[6] = tested on: BEAS-2B (non-malignant bronchial epithelial); assay: MTT viability assay, BEAS-2B; type: cell-based; settings: BEAS-2B non-malignant, 72 h, MTT
Procedure: as §1, §2, §3

[7] = MTT viability assay, 184B5; type: cell-based; settings: human
Procedure: as §1, §2, §3

[8] = tested on: 184B5 (non-malignant mammary epithelium); assay: MTT viability assay, 184B5; type: cell-based; settings: 184B5 non-malignant, 72 h, MTT
Procedure: as §1, §2, §3

[9] = tested on: HTB-54 (lung carcinoma); assay: MTT viability assay, HTB-54; type: cell-based; settings: HTB-54, 72 h
Procedure: as §1, §2, §3

[10] = tested on: PC-3 (prostate adenocarcinoma); assay: MTT viability assay, PC-3; type: cell-based
Procedure: as §1, §2, §3

`C[Se]C(=O)c1cnccn1` [Compound 3, Methyl pyrazinecarboselenoate] gave a CC50 ([1]; Homo sapiens, read-out: LC50) of 40.1 ± 4.4 µM, a GI50 ([1]; Homo sapiens, MTT) of 3.5 ± 0.8 µM and a TGI ([1]; MTT) of 7.2 ± 1.0 µM. For the same compound, the “CH3SeH release at 24 h” value [2] was “completely released”, the CC50 ([3]; Homo sapiens, K562, 72 h, read-out: LC50) was 87.9 ± 2 µM and the GI50 ([3]; Homo sapiens, K562, K-562, 72 h, MTT) was 30.2 ± 2.2 µM. For the same compound, the TGI ([3]; K-562, 72 h, MTT) was 59.1 ± 2.1 µM, the TGI ([4]; MTT) was 9.1 ± 0.8 µM and the CC50 ([4]; Homo sapiens, read-out: LC50) was over 100 µM. It also gave a GI50 ([4]; Homo sapiens, MTT) of 4.7 ± 0.6 µM, a CC50 at 72 h [5] of 8.6 ± 0.5 µM and a TGI [6] of 6.1 ± 0.5 µM. The GI50 ([6]; Homo sapiens) was 3.6 ± 0.6 µM, the CC50 at 72 h [7] was 17.6 ± 4.4 µM and the TGI [8] was 6.6 ± 0.9 µM. For the same compound, the GI50 ([8]; Homo sapiens) was 3.1 ± 0.5 µM, the GI50 ([9]; MTT) was 6.2 ± 1.5 µM and the TGI ([9]; MTT) was 21.1 ± 4.1 µM. The CC50 ([9]; read-out: LC50) was 71.1 ± 3.8 µM, the CC50 ([10]; 72 h, read-out: LC50) was 60.5 ± 4.3 µM and the GI50 ([10]; PC-3, 72 h, MTT) was 5.4 ± 1.1 µM. The TGI ([10]; PC-3, 72 h, MTT) was 15.3 ± 1.7 µM.
